This passage reports TGI and GI50 results from PubChem BioAssay (NCI).

Molecules are shown by their SMILES. Values joined by “and” are separate entries in the source; they are usually repeats but may differ in a detail not shown here. Equal entries are not always repeated.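 96-well plates; 48 h exposure; 5 concentrations. Endpoints by linear interpolation between flanking doses. Not reached: highest tested concentration assigned. GI50 is the concentration that inhibits growth by half. At the TGI there is no net growth.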

What all share (assay): growth of human tumour cells (NCI), 48 h
Test [1] concerns SNB-19 CNS.
Test [2] relates to MCF7 breast.
Test [3] concerns SF-295 CNS.
Test [4] deals with HS 578T breast.
Test [5] deals with HL-60(TB) leukemia.
The subject of test [6] is MDA-MB-231 breast.
Test [7] has as its system HT29 colon.
Test [8] relates to HOP-92 NSCLC.
In test [9] the test system is A549 NSCLC.
Test [10] concerns NCI-H23 lung.

Regarding `CC(C)Oc1c(-c2ccc(F)cc2)c(O)c2c3c1oc(=O)n3C=CC2C` (centres undefined), the TGI in test [1] was 31.9 µM; in test [2], 24.3 µM; in test [3] it was 34.6 µM; in test [4], 52.8 µM; in [5], 31 µM; in test [6], 28.7 µM. Further, the TGI was 30.2 µM in test [7], 28 µM in [8], 28 µM in [9] and 24.6 µM in [10].
With `O=C(N/N=C/c1ccccc1)c1cccc2nc3ccccc3nc12`, the TGI in test [1] was over 100 µM; in [2] it was over 100 µM; in test [3] it was over 86.5 µM; in test [4] it was over 72.9 µM; in test [5] it was over 100 µM; in test [6], over 100 µM. Moreover, the TGI in test [7] was over 100 µM; in test [8] it was over 100 µM; in test [9] it was over 84 µM; in [10] it was over 69.2 µM.
Take `Fc1ccc(C(OCCN2CC3CCC(C2)N3CCCc2ccccc2)c2ccc(F)cc2)cc1`: the TGI in test [1] came to 22.1 µM; in test [2] it was 10.7 µM; in test [3] it was 11.8 µM; in [4] it was 13.6 µM; in test [5], 14.1 µM; in test [6], 10.2 µM. The TGI in [7] amounted to 13.7 µM; in test [8], 21.1 µM; in [9], 21.5 µM; in test [10], 15.3 µM.
With `CC(=O)N(C(C)=O)c1cc2c3c(c1)CCCN3CCC2`, the TGI in test [1], in test [2], in test [3], in test [4], in [5] and in [6] was over 10 µM each time. Moreover, the TGI in [7], in [8], in test [9] and in test [10] was over 10 µM throughout.
With `COc1ccc2nc3cccc([N+](=O)[O-])c3c(NCCCO)c2c1`, the GI50 is 0.0159 µM and 0.0252 µM in test [1]; 0.00799 µM and 0.0319 µM in test [3]; 0.00445 µM and 0.033 µM in [4]; 0.00233 µM in [5]; 2.26 µM in test [6]; 0.0154 µM in [8]. The GI50 in test [10] is 0.0117 µM. Besides, the TGI was 0.404 µM and 0.29 µM in [1]; 0.0134 µM and 0.0389 µM in [2]; 0.00183 µM in test [7]; 0.0565 µM in [8]; 0.0223 µM and 0.102 µM in test [9]; 0.05 µM in [10].
`ClCCCCCc1c2nc(c(CCCCCCl)c3ccc([nH]3)c(CCCCCCl)c3ccc([nH]3)c(CCCCCCl)c3nc1C=C3)C=C2`: the TGI in test [1], in [2], in [3], in test [4], in test [5] and in test [6] was over 100 µM in each case. The TGI in [7], in [8], in [9] and in test [10] was over 100 µM throughout.
Consider `CCOP(=O)(OCC)OC1c2[nH]cc(C(=O)OCc3ccccc3)c2-c2cc(C(=O)OC)[nH]c2C1OC` (centres undefined), for which the TGI in test [1] was over 100 µM; in test [2] it was over 100 µM; in [3], 28.8 µM; in test [4], over 100 µM; in test [5], over 100 µM; in test [6] it was 37 µM. The TGI in test [7] is over 48.4 µM; in test [8], 26.3 µM; in test [9], over 61.2 µM; in [10], over 100 µM.
With `N#Cc1c(O)c(/C=N/c2ncccn2)c(=O)n2c1[nH]c1ccccc12`, the TGI in test [1], in [2], in [3], in [4], in test [5] and in test [6] was over 100 µM each time. The TGI in test [7], in test [8], in test [9] and in [10] was over 100 µM each time.
With `COc1cc(OC)c2[nH]c3c(O)c(-c4c(C)cc5c([nH]c6c(OC)cc(OC)cc65)c4O)c(C)cc3c2c1`, the GI50 is 8.68 µM in test [2]; 10.2 µM in [3]; 2.82 µM in test [5]; 8.03 µM in test [7]; 8.2 µM in test [10]. The TGI in [2] was determined as 18.9 µM; in [3], 21.8 µM; in test [4], 20.2 µM; in test [5], 10.5 µM; in test [6], 19.1 µM; in test [7], 14.8 µM. Also, the TGI worked out at 15.6 µM in test [8], 13.3 µM in test [9] and 16.7 µM in test [10].
Consider `CN1CC2CN(Cc3ccccc3)CCN2c2cccnc21` (centres undefined), for which the TGI in [1], in test [2], in test [3], in test [4], in test [5] and in test [6] was over 100 µM in each case. Moreover, the TGI in [7] was 87.9 µM; in test [8], over 100 µM; in test [9], over 100 µM; in test [10], over 100 µM.
On to `CCCCCCCCCCCCCCCCCCOCC(O)COP(=O)(O)OCC1OC(n2ccc(N)nc2=O)C(O)C1O` (centres undefined), for which the TGI in test [1] was 24.6 µM; in [2], over 100 µM; in test [3] it was 68.8 µM; in test [4], over 100 µM; in test [5] it was 30.8 µM; in test [6], 64.7 µM. Further, the TGI was 50.7 µM in test [7], 71.8 µM in [8], over 100 µM in [9] and over 100 µM in [10].
For the molecule `c1ccc2c(c1)OC(N1CCCC1)c1cnc(N3CCOCC3)nc1-2` (centres undefined), the TGI in [1] is over 100 µM; in test [2], 38.2 µM; in test [3] it was over 100 µM; in test [4], over 100 µM; in test [5] it was over 100 µM; in test [6], over 100 µM. The TGI in [7] is over 100 µM; in test [8], 55.6 µM; in test [9] it was over 100 µM; in test [10], 30.9 µM.
Consider `COc1ccc(-c2c(C#N)c(S)n(NS(=O)(=O)c3ccccc3)c(=O)c2C#N)cc1`, for which the TGI in [1], in [2], in [3], in test [4], in [5] and in test [6] was over 100 µM throughout. Moreover, the TGI in test [7], in test [9] and in [10] was over 100 µM in each case.
With `O=C(N/N=C(/COc1ccccc1)N=Cc1cccnc1)c1ccncc1`, the TGI in test [1], in [2], in test [3], in [4], in test [5] and in test [6] was over 100 µM in each case. The TGI in test [7], in [9] and in [10] was over 100 µM in each case.
Regarding `CCOC(=O)/C=C(/C)Nc1nc2c(c(C(=O)OC)c1C#N)CCCC2`, the TGI in test [1], in test [2], in test [3], in test [4], in [5] and in [6] was over 100 µM each time. For the same molecule, the TGI in test [7], in [8], in test [9] and in test [10] was over 100 µM each time.
Take `Cn1cc(-c2csc(-c3cn(C)c4ccccc34)n2)c2ccccc21`: the TGI in test [1] was over 100 µM; in test [2] it was over 100 µM; in test [3], over 100 µM; in test [4] it was over 100 µM; in test [5], over 100 µM; in test [6], 60.1 µM. The TGI in [7] was over 100 µM; in [8], 94.5 µM; in test [9], over 100 µM; in test [10] it was over 100 µM.
Turning to `C[C@@H]1CC[C@@]2(OC1)O[C@H]1C[C@H]3[C@@H]4CC[C@H]5C[C@@H](OC6OC(CO)C(OC7OC(CO)C(O)C(OC8OCC(O)C(O)C8O)C7OC7OC(CO)C(O)C(O)C7O)C(O)C6O)[C@H](O)C[C@]5(C)[C@H]4CC[C@]3(C)[C@H]1[C@@H]2C` (some centres undefined), the TGI in test [1] is 27.1 µM; in [2] it was 1.68 µM; in test [3] it was 13.4 µM; in test [4], 15.9 µM; in test [5], 9.54 µM; in test [6], 6.71 µM. The TGI was found to be 13.3 µM in [7], 66.5 µM in test [8], 10.9 µM in test [9] and 7.39 µM in test [10].
Regarding `NS(=O)(=O)c1ccc(/C=C/c2ccc(O)cc2)cc1`, the TGI in test [1] was over 100 µM; in test [2], over 100 µM; in test [3] it was 65 µM; in test [4], over 100 µM; in test [5], over 100 µM; in test [6], 60.7 µM. In addition, the TGI turned out to be 35.1 µM in [7], 39.5 µM in test [8], 55.4 µM in test [9] and 60.1 µM in [10]. Also, the GI50 was 28.9 µM in [4]; 4.35 µM in test [5]; 17.8 µM in test [7]; 13.9 µM in test [9]; 16.9 µM in test [10].
As for `O=C(c1cc2c(c3ccccc13)NC1(CCCCC1)N=C2C(F)(F)F)C(F)(F)F`, the TGI in test [1] came to 18.7 µM; in test [2], 12.2 µM; in test [3], 10.9 µM; in test [4], 29.3 µM; in [5] it was 9.89 µM; in [6], 9.83 µM. In addition, the TGI was 13.4 µM in [7], 13.4 µM in [8], 16.3 µM in [9] and 12.5 µM in [10].
For `Cc1[nH]c(=O)nc(NNCc2ccc(Cl)cc2)c1C(=O)Nc1ccc(Cl)cc1`, the TGI in test [1], in [2], in [3], in [4], in test [5] and in [6] was over 100 µM in each case. Moreover, the TGI in test [8], in test [9] and in test [10] was over 100 µM each time.
Turning to `O=c1cc(-c2ccccc2)[nH]c2nccn12`, the TGI in [1], in test [2], in [3], in test [4], in test [5] and in test [6] was over 10 µM each time. For the same molecule, the TGI in [7], in test [9] and in test [10] was over 10 µM in each case.
`O=CN1CCN(C(=O)c2ccc(Cl)c(Cl)c2)C1=S`: the TGI in [1] is 31.7 µM; in test [2] it was 25 µM; in [3] it was 34.4 µM; in test [4], over 100 µM; in test [5], 45.7 µM; in [6], 30.8 µM. The TGI in test [7] was determined as 38.4 µM; in test [9], 35 µM; in test [10], 41 µM.
Consider `Cc1cc(S(=O)(=O)/N=C(\[N-]S(=O)(=O)c2cc(Cl)sc2Cl)[n+]2ccc(N(C)C)cc2)c(S)cc1Cl`, for which the TGI in test [2], in [3], in [4], in test [5], in [6] and in [7] was over 100 µM each time. For the same molecule, in test [10], the TGI is over 100 µM.
Turning to `CC1=C(C(=O)N[C@@H](CC(C)C)C(=O)O)N2C(=O)[C@@H](NC(=O)C(N)c3ccccc3)[C@H]2SC1` (some centres undefined), the TGI in [1], in [2], in test [3], in [4], in test [5] and in test [6] was over 100 µM throughout. Besides, the TGI in test [8] and in test [9] was over 100 µM in each case.
For the molecule `CCOC(=O)NN(C(=O)OCC)c1c(C)cc(C)cc1C`, the TGI in test [1], in test [2], in [4], in [5], in test [6] and in test [7] was over 100 µM in each case. The TGI in test [9] and in test [10] was over 100 µM throughout.
Take `Cc1ccc2c(/C=C/c3ccc(N(C)C)cc3)ccc(C(C)C)cc1-2`: the TGI in test [2] is over 100 µM; in test [3] it was over 100 µM; in test [4], over 100 µM; in test [5], 88.3 µM; in test [6] it was over 100 µM; in test [7] it was over 100 µM. In addition, the TGI in [8], in [9] and in test [10] was over 100 µM in each case.
